This is an account of results in US20140187570A1, “NOVEL FORMULATIONS OF PYRIMETHANIL, AND THEIR USE IN TREATMENT OF CROPS” (XEDA INTERNATIONAL, priority 2011, published 2014).

Each structure is given as a SMILES string.

One test concerns Geotrichum candidum. Description: Fungicidal activity on treated oranges (Example 5). The format is in vivo. Conditions: oranges treated with pyrimethanil alone. Here is the method: Oranges are separated into three lots, and are treated as follows: • Lot 1 (control): oranges not treated; • Lot 2: oranges treated with pyrimethanil alone; • Lot 3: oranges treated with 250 g of the formulation according to Example 2 diluted in one hectolitre of water.

Test [1] has as its system Monilinia fructicola strain resistant to pyrimethanil. Description: In vitro growth inhibition of the halo on PDA Petri dishes, resistant strain. Format: cell-based. To be noted: dose 250 ml/hl. As for the experimental part:
The object of the study was to determine the efficacy of combinations according to the invention against the phytopathogenic fungus Monilinia fructicola, compared to pyrimethanil alone.
The efficacy of the combinations against Monilinia fructicola was determined by determining the inhibition of growth of the halo in accordance with various general methods (ISO 6887: 2003; ISO 7218: 2007; ISO 7954: 1987).
The samples were added to the artificial medium and were mixed gently prior to the solidification of the agar solution.
A small quantity of fungal spores was placed at the centre of the potato dextrose agar (PDA) in Petri dishes at 25±1° C. for 5-6 days. At the end of the incubation, the inhibition of the halo formed was measured, compared with untreated PDA Petri dishes (control).
The results are expressed as the percentage of incidence of the infestation, and the percentage of efficacy of the product tested.
Monilinia fructicola—Strain Resistant to Pyrimethanil: […]

Take `Cc1cc(C)nc(Nc2ccccc2)n1` [pyrimethanil alone, 2-anilino-4,6-dimethylpyrimidine]: in the test with Geotrichum candidum, the “level of Geotrichum candidum compared with control lot” value is on record as “same level of Geotrichum candidum as the control lot”. In addition, the “Efficacy (%)” value in test [1] was 45%.
